Reference: article PMC9738531, “Cholinesterases Inhibition, Anticancer and Antioxidant Activity of Novel Benzoxazole and Naphthoxazole Analogs” (Molecules, 2022)
Read-outs that look alike come from different tables or passages of the source.

Key:
[1] = system: HCV29T (bladder cancer) cells; experiment: SRB antiproliferative assay, HCV29T; format: cell-based, human; conditions: 72 h, means ± SD, read-out: IC50 HCV 29T
Experimental: (§1) The compounds were also evaluated for their antiproliferative potencies against human cancer cell lines as the potential anticancer agents. […]. The results are presented in Table 3 and expressed as IC50 (μM). In that score, the highest potency was shown by the analogs from the naphtho[1,2-d][1,3]oxazole group 8–10, particularly by derivative 10 with a chlorine atom on the benzenediol moiety.
(§2) In the antiproliferative assay in vitro, the following human cell lines were applied: T47D (breast cancer), SW707 (rectal adenocarcinoma), A549 (non-small cell lung carcinoma) from the American Type Culture Collection (Rockville, MD, USA) and HCV29T (bladder cancer) from the Fibiger Institute, Copenhagen, Denmark. Cytotoxicity assay was performed after 72 h exposure of the cultured cells at the concentration ranging from 0.1 to 100 μg/mL of the tested agents. The SRB test measuring the cell proliferation inhibition in the in vitro culture was applied. The cellular material fixed with TCA was stained with 0.4% sulforhodamine B (Chemie GmbH, Steinheim, Germany) dissolved in 1% acetic acid (POCh, Gliwice, Poland) for 30 min.

[2] = Lipophilicity by RP-18 HPLC chromatography; format: physicochemical; conditions: for -S (slope of log k vs MeOH fraction): MeOH/acetate buffer, pH 7.4; for log kw: pH 7.4, extrapolation to pure water as mobile phase
Source text: The lipophilicity parameter was estimated for the tested compounds as it is an important feature that influences the pharmacokinetic properties of bioactive compounds [46, 47]. Lipophilicity also determines some biological activities, such as the antiproliferative or fungistatic activity. For lipophilicity determination, reversed-phase column chromatography was used, with the octadecyl C-18 stationary phase and MeOH as the organic modifier in the isocratic conditions.
HPLC measurements were performed using a liquid chromatograph (Knauer, Berlin, Germany) with a dual pump and a UV-visible detector. The measurements were made at 254 or 320 nm at room temperature. A Eurosil Bioselect C18 (5 μm, 300 × 4.6 mm) column was applied as the stationary phase. The mobile phase consisted of different volume mixtures of 20 mM acetate buffer as the aqueous phase, and MeOH as the organic modifier (pH 7.4). The different concentrations of MeOH from 0.5 to 0.90 (v/v) range was used, depending on the structure of the compound at 0.05 intervals. The flow rate was 1 mL/min. Retention time of an unretained solute (t0) was determined by the injection of a small amount of acetone dissolved in water.
Regular changes in the retention coefficients of compounds in a function of the organic modifier MeOH content in the mobile phase are described by the Soczewiński–Wachtmeister equation [56]:log k = log kw + S φ(1)
φ—the volume fraction of organic modifier (MeOH) in the mobile phase; log kw—the intercept; S—slope of the regression curve. Log kw refers to the retention parameter of a compound with pure water as the mobile phase.

[3] = system: SW707 (rectal adenocarcinoma) cells; experiment: SRB antiproliferative assay, SW707; format: cell-based, human; conditions: means ± SD, read-out: IC50 SW 707
Experimental: as §1, §2

[4] = system: T47D (breast cancer) cells; experiment: SRB antiproliferative assay, T47D; format: cell-based, human; conditions: 72 h, means ± SD
Experimental: as §1, §2

[5] = system: A549 (non-small cell lung carcinoma) cells; experiment: SRB antiproliferative assay, A549; format: cell-based, human; conditions: means ± SD
Experimental: as §1, §2

[6] = system: normal mammary gland MCF10A cells; experiment: LDH cytotoxicity assay, MCF10A normal cells; format: cell-based, human; conditions: 72 h
Experimental: (§3) In view of the observed antiproliferative activity, the influence of the tested compounds on the normal human cells—normal mammary gland epiterial cells of the MCF10A line and the normal keratenocytes HaCaT line—was examined (Figure 5). The cells were treated with compounds 3, 8 and 10 in the concentration range from 0.1 µM to 25 µM for 72 h, after which the cell viability was tested by analysis of the level of released lactate dehydrogenase (LDH method).
(§4) Normal human epithelial cells from the mammary gland, MCF10A (a generous gift from our colleague Dr. Saraswati Sukumar (JHU), who obtained them recently from ATCC), and normal human keratinocytes HaCaT (also obtained from ATCC), were cultured in DMEM/F12 medium (Gibco), supplemented with 5% horse serum (Gibco), 5% FBS (Sigma-Aldrich Chemie GmbH, Taufkirchen, Germany ), penicillin streptomycin solution (1×) (Gibco) at 37 °C and 5% CO2. The cells were subcultured twice a week.
(§5) Human epiterial breast cells MCF10A and human keratinocytes HaCaT (1 × 10^4/mL) cells were placed on 96-well plates (Nunc, Roskilde, Denmark). The next day, the cells were exposed to increasing concentrations of compounds 3, 8 and 10 in 0.1, 0.25, 0.5, 1, 2.5, 5, 10 and 25 μM in fresh culture medium. Cytotoxicity was estimated based on the measurements of cytoplasmic lactate dehydrogenase (LDH) activity released from the damaged cells after the 72 h exposure to the compounds. The LDH assay was performed according to the manufacturer’s instructions (Cytotoxicity Detection KitPLUS LDH, Roche, Mannheim, Germany). Absorbance was measured using a microplate at two different wavelengths: “measurement wavelength” (492 nm) and “reference wavelength” (690 nm), using a microplate.

[7] = system: normal keratinocytes HaCaT cells; experiment: LDH cytotoxicity assay, HaCaT normal cells; format: cell-based, human; conditions: 72 h; for toxicity to keratinocytes (LDH release): HaCaT
Experimental: as §3, §4, §5

[8] = biological target: T1, Acetylcholinesterase (AChE, E.C. 3.1.1.7, from human erythrocytes) (Homo sapiens, UniProt P22303); experiment: biochemical; conditions: for Selectivity for AChE: IC50 (BChE)/IC50 (AChE); for IC50: means ± SEM of three independent experiments
T1 construct: Acetylcholinesterase (AChE, E.C. 3.1.1.7, from human erythrocytes); purchased Sigma-Aldrich (Steinheim, Germany); host or cells: human erythrocytes (natural source)
T1 sequence (P22303 other isoform, or with tags, fused parts or gaps): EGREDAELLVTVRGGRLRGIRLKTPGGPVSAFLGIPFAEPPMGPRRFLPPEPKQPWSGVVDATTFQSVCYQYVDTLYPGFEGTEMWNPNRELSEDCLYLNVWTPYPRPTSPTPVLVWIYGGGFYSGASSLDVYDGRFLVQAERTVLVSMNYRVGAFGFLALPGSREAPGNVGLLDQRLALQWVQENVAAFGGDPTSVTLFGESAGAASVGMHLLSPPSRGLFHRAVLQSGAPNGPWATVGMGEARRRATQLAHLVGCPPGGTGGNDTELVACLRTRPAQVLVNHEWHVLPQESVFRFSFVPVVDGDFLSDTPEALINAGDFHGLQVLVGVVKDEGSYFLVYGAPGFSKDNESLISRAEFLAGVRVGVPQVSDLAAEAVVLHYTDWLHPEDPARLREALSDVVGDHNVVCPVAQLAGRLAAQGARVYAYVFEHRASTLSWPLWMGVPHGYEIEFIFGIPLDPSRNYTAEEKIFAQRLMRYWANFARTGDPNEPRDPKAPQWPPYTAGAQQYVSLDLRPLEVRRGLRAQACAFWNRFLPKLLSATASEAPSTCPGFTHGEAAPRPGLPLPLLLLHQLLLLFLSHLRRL
Experimental: (§6) The compounds were evaluated by an in vitro assay as the AChE and BChE inhibitors. The studies were carried out using the modified Ellman’s method. […] The inhibitory activities against AChE and BChE of the newly-synthesized compounds were determined exactly, according to a previous paper. […] The samples were analysed in triplicate. IC50 values were designated from a dose–response curve obtained by plotting the percentage of inhibition versus the log concentration, using GraphPad Prism 8 software. […] AChE and BChE activity data were compared using the Kruskal–Wallis test at the significance level of 1%.

[9] = biological target: T2, butyrylcholinesterase (BChE, E.C. 3.1.1.8, from equine serum) (Equus caballus, UniProt P81908); experiment: biochemical; conditions: means ± SEM of three independent experiments
T2 construct: butyrylcholinesterase (BChE, E.C. 3.1.1.8, from equine serum); purchased Sigma-Aldrich (Steinheim, Germany); host or cells: equine serum (natural source)
T2 sequence (P81908 whole entry): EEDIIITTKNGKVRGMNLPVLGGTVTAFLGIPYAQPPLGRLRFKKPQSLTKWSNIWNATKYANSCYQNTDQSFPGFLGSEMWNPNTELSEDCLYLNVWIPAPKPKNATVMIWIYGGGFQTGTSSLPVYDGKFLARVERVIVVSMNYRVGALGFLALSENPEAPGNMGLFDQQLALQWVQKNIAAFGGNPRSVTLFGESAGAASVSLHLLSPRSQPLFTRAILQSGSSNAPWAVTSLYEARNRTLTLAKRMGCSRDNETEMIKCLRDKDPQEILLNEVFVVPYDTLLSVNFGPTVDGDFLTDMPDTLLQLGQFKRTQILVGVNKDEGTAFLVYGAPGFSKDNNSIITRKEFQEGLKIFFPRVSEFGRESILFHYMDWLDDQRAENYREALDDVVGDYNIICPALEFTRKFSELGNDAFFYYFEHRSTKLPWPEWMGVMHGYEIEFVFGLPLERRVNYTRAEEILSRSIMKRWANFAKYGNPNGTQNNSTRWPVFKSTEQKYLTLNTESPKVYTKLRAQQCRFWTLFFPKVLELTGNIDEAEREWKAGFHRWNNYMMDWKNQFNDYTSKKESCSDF
Experimental: as §6

[10] = DPPH free radical scavenging activity; conditions: concentration scavenging 50% of DPPH radicals; means ± SD of three experiments
Experimental: To evaluate the antioxidant potential of compounds as radical scavengers versus the stable free radicals, 2,2-diphenylpicrylhydrazyl (DPPH) was applied. Antioxidant properties were expressed as the IC50 value—the concentration of compound required for scavenging 50% of DPPH radicals. […].
The DPPH free radical scavenging activities of the synthesized compounds were measured by DPPH, according to the method described in the paper. The free radical scavenging activity was measured as a decrease in the absorbance of DPPH, and calculated using the equation:DPPH scavenging effects (%) = […] [(A0 − A1)/A0]∙100](2) where: A0 was the absorbance of the control reaction and A1 absorbance in the presence of the sample of the analysed compounds [62]. The IC50 values were calculated as the concentration of compound required for scavenging 50% of DPPH [45]. Results were presented as the mean ± standard deviation (SD). The antioxidant activity data were compared using the one-way ANOVA test at the significance level 5%.

AChE = biological target: T3, AChE (Homo sapiens, UniProt P22303); experiment: Kinetic study of AChE inhibition (Lineweaver-Burk); format: biochemical; conditions: for type of AChE inhibition: Lineweaver-Burk plot
T3 construct: Acetylcholinesterase (AChE, E.C. 3.1.1.7, from human erythrocytes); purchased Sigma-Aldrich (Steinheim, Germany); host or cells: human erythrocytes (natural source)
T3 sequence (P22303 other isoform, or with tags, fused parts or gaps): as the sequence (P22303 other isoform, or with tags, fused parts or gaps) above
Experimental: Ellman’s method was used to prepare a kinetic characterization of AChE inhibition for compound 8. […]. The tested medium contained DTNB solution (0.4 mg/mL), AChE solution (2 U/mL), solution of the examined compound 8, and different concentrations of the ATCh iodide substrate solution (S). Absorbance was detected at 412 nm at room temperature after 10 min. The obtained data were calculated and presented on the Lineweaver–Burk plot. The determined the Michaelis–Menten constant (KM) and the maximum velocity of the enzyme (Vmax) values were used to define the type of enzyme inhibition.

SMILES	IC50 ([1]; Homo sapiens, HCV29T)	-S (slope of log k vs MeOH fraction) [2]	log kw [2]	IC50 ([3]; Homo sapiens, SW707, 72 h)	IC50 ([4]; Homo sapiens, T47D)	IC50 ([5]; Homo sapiens, A549, 72 h)	Selectivity for AChE [8]	IC50 [8]	IC50 [9]	IC50 [10]	other results
Oc1ccc(-c2nc3ccccc3o2)c(O)c1 [Compound 1, 4-(1,3-Benzoxazol-2-yl)benzene-1,3-diol]	33.9 ± 4.77 µM	4.358	3.273	–	–	–	–	–	–	–	–
Cc1c(O)ccc(-c2nc3ccc(O)cc3o2)c1O [Compound 2, 4-(6-Hydroxy-1,3-benzoxazol-2-yl)-2-methylbenzene-1,3-diol]	8.34 ± 1.53 µM	4.64	3.301	4.38 ± 1.57 µM	5.28 ± 0.16 µM	6.81 ± 2.23 µM	–	–	–	–	–
COC(=O)c1ccc2nc(-c3ccc(O)cc3O)oc2c1 [Compound 3, Methyl 2-(2,4-dihydroxyphenyl)-1,3-benzoxazole-6-carboxylate]	6.43 ± 1.12 µM	5.325	2.92	5.47 ± 2.16 µM	3.37 ± 1.52 µM	4.28 ± 0.55 µM	10.017	0.113 ± 0.011 µM	1.13 ± 0.016 µM	0.286 ± 0.122 µM	toxicity to normal breast cells (LDH release) ([6]; 0.1–10 µM): not toxic; change in lactate dehydrogenase levels ([6]; 5 and 10 µM, vs control): statistically significant reduction; toxicity to keratinocytes (LDH release) ([7]; 0.1–10 µM): not toxic; change in lactate dehydrogenase levels ([7]; HaCaT, 2.5, 5 and 10 µM, vs control): statistically significant reduction
COC(=O)c1ccc2nc(-c3ccc(O)c(C)c3O)oc2c1 [Compound 4, Methyl 2-(2,4-dihydroxy-3-methylphenyl)-1,3-benzoxazole-6-carboxylate]	4.64 ± 0.93 µM	5.002	3.411	3.36 ± 0.84 µM	3.2 ± 0.84 µM	3.71 ± 0.4 µM	–	–	–	–	–
CCc1cc(-c2nc3ccc(C(=O)OC)cc3o2)c(O)cc1O [Compound 5, Methyl 2-(5-ethyl-2,4-dihydroxyphenyl)-1,3-benzoxazole-6-carboxylate]	3.54 ± 1.05 µM	5.855	3.774	2.13 ± 0.49 µM	4.11 ± 1.27 µM	3.08 ± 0.26 µM	–	–	–	–	–
COC(=O)c1ccc2nc(-c3cc(Cl)c(O)cc3O)oc2c1 [Compound 6, Methyl 2-(5-chloro-2,4-dihydroxyphenyl)-1,3-benzoxazole-6-carboxylate]	7.54 ± 3.15 µM	5.477	4.223	6.04 ± 0.89 µM	6.61 ± 2.48 µM	10.5 ± 5.61 µM	0.394	0.831 ± 0.014 µM	0.328 ± 0.027 µM	0.861 ± 0.071 µM	–
COC(=O)c1ccc2nc(-c3ccc(O)c(O)c3O)oc2c1 [Compound 7, Methyl 2-(2,3,4-trihydroxyphenyl)-1,3-benzoxazole-6-carboxylate]	23.3 ± 4.07 µM	4.811	2.800	–	–	–	3.644	0.183 ± 0.031 µM	0.667 ± 0.004 µM	0.887 ± 0.064 µM	–
Oc1ccc(-c2nc3c(ccc4ccccc43)o2)c(O)c1 [Compound 8, 4-(Naphtho[1,2-d][1,3]oxazol-2-yl)benzene-1,3-diol]	2.5 ± 1.88 µM	4.263	3.936	3.35 ± 0.16 µM	2.86 ± 0.18 µM	4.17 ± 0.19 µM	–	0.058 ± 0.01 µM	0.981 ± 0.015 µM	0.452 ± 0.031 µM	type of AChE inhibition (AChE): mixed-type inhibitor; type of AChE inhibition (AChE; listed as 4-(Naphtho[1,2-d][1,3]oxazol-2-yl)benzene-1,3-diol): mixed-type inhibition; Vmax (AChE; compound 8 concentration 25 nM): 0.031 A/min; Vmax (AChE; compound 8 concentration 50 nM): 0.023 A/min; Vmax (AChE; compound 8 concentration 75 nM): 0.021 A/min; influence on mammary cells viability (LDH) ([6]; 0.1–5 µM): no influence; toxicity to keratinocytes (LDH release) ([7]; whole tested range 0.1–25 µM): toxic
CCc1cc(-c2nc3c(ccc4ccccc43)o2)c(O)cc1O [Compound 9, 4-Ethyl-6-(naphtho[1,2-d][1,3]oxazol-2-yl)benzene-1,3-diol]	3.72 ± 0.36 µM	5.395	4.901	8.58 ± 3.4 µM	7.28 ± 2.5 µM	4.94 ± 0.69 µM	1.971	0.516 ± 0.009 µM	1.02 ± 0.032 µM	0.214 ± 0.024 µM	–
N.N.[Cl][Pt][Cl] [cisplatin, reference compound]	–	–	–	–	–	–	–	–	–	–	IC50 ([3]; 72 h): 3.65 ± 0.76 µM; IC50 [4]: 4.01 ± 1.58 µM; IC50 [1]: 2.4 ± 0.32 µM; IC50 ([5]; 72 h): 3.07 ± 0.45 µM
O=c1c(O)c(-c2ccc(O)c(O)c2)oc2cc(O)cc(O)c12 [quercetin, reference compound]	–	–	–	–	–	–	–	–	–	0.032 ± 0.001 µM	–
